Here are results for 21 molecules from patent US20150352108A1, “AMINO-PYRIMIDINE COMPOUNDS AS INHIBITORS OF TBK1 AND/OR IKK EPSILON” (Alzheimer's Institute of America, priority 2009, published 2015).

Each structure is given as a SMILES string. Where two headings read alike, the source gives them in different places. A value given as a limit tells only on which side of the number the result lay.

For test [1], the target named is T1, IKKε (Homo sapiens, UniProt Q14164).
T1 construct: His-tag; made in house; host or cells: Sf9 insect cells
T1 sequence (Q14164 1-716): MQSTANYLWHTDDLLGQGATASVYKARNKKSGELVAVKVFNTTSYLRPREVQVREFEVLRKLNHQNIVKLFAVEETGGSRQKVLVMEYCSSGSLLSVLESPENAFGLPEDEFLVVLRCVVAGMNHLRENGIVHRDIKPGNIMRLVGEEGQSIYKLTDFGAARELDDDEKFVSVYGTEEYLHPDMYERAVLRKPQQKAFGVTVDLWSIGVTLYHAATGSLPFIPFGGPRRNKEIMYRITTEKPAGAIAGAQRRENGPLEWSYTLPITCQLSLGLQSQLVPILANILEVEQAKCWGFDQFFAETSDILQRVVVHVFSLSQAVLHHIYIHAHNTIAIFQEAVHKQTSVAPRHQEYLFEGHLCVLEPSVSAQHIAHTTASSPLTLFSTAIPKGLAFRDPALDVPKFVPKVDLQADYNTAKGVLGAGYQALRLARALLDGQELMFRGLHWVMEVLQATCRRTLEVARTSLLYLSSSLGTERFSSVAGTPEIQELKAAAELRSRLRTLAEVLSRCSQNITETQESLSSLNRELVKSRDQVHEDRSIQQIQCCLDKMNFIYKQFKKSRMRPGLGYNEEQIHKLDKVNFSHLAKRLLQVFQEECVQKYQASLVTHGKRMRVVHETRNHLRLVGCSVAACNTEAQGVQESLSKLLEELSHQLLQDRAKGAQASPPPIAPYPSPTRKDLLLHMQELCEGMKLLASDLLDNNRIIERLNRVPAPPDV
Kind of test: In-vitro IKKε kinase assay ([γ33]ATP filter-plate). The class given is biochemical. The procedure, abridged: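 His-tagged Sf9-expressed kinases at 0.1 or 0.02 μg/ml (TBK1) and 0.1 or 0.015 μg/ml (IKKε) for normal and sensitized formats, with myelin basic protein or casein substrate. ATP was at 2×Km (60 μM TBK1, 32 μM IKKε) plus 0.3 μCi [γ33]ATP. Reactions ran 30-45 min, were captured on P-81 filters, and counts were normalized to DMSO.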

Test [2] addresses T2, TBK1 (Homo sapiens, UniProt Q9UHD2).
T2 construct: His-tag; made in house; host or cells: Sf9 insect cells
T2 sequence (Q9UHD2 1-729): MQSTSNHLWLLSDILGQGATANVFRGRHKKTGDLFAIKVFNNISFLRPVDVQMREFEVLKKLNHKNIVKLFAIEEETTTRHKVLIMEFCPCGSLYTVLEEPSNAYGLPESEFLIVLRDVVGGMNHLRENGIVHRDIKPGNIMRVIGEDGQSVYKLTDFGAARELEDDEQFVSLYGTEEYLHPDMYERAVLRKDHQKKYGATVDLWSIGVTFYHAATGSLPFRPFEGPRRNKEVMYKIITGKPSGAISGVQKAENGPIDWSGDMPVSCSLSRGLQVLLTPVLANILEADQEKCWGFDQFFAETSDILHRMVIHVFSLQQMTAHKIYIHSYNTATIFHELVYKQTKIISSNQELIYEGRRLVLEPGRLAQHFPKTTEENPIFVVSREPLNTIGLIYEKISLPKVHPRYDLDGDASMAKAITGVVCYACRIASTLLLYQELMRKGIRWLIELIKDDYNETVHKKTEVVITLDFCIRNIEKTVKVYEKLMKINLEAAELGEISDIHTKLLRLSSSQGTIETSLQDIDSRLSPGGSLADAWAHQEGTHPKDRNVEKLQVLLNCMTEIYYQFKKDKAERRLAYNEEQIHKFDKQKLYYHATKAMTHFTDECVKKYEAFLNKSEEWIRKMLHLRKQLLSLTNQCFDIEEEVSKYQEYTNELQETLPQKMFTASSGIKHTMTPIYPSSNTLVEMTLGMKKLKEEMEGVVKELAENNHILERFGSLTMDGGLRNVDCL
As to the kind of experiment: In-vitro TBK1 kinase assay ([γ33]ATP filter-plate). The class given is biochemical. On the procedure: IKKε enzyme was produced as a His-tag fusion in Sf9 cells and used at a final concentration of […]. TBK1 enzyme was produced as a His-tag fusion in Sf9 cells and used at a final concentration of 0.1 μg/ml. Kinase reactions were carried out in reaction buffer using myelin basic protein (Millipore, Ballerica, Mass.) or casein (Sigma, St. Louis, Mo.) as substrate at an ATP concentration equal to twice the Km,ATP value for each enzyme, corresponding to 32 μM ATP for IKKε and 60 μM ATP for TBK1, in the presence of 0.3 μCi [γ^33]ATP (PerkinElmer, Waltham, Mass.). Final enzyme concentrations were 0.1 or 0.015 μg/ml (IKKε) and 0.1 or 0.02 μg/ml (TBK1), representing “normal” and “sensitized” assay conditions respectively. Test compounds (or DMSO solvent as a control) were added prior to initiation of the reactions. Reactions were terminated after 30-45 minutes by adding 3% phosphoric acid. Terminated reactions were transferred to P-81 cellulose phosphate filterplates (Whatman, Inc., Piscataway, N.J.) and washed with 1% phosphoric acid on a vacuum apparatus. After air drying, scintillant (PerkinElmer, Waltham, Mass.) was added and the plates were read on a PerkinElmer TopCount NXT instrument. Counts were normalized to DMSO controls after background subtraction.

[3] abbreviates: text bins, read-out: IC50 for inhibition of the kinase activity of IKKε.
[4] abbreviates: text bins, read-out: IC50 for inhibition of the kinase activity of TBK1.

In general, IC50 refers to the concentration needed to halve the response being measured. As to `N#Cc1cc(-c2ccnc(Nc3ccc(N4CCOCC4)cc3)n2)ccc1OCCCN` [compound 447, 2-(3-Aminopropoxy)-5-(2-{[4-(morpholin-4-yl)phenyl]amino}pyrimidin-4-yl)benzonitrile], the IC50 was in the range of 5 to 50 nM in test [1] (setting [3]) and 10 to 100 nM in test [2] (setting [4]).
The matching figures for `N#Cc1cc(-c2ccnc(Nc3ccc(N4CCOCC4)cc3)n2)ccc1OCc1cccnc1` [Example 168, 5-(2-{[4-(Morpholin-4-yl)phenyl]amino}pyrimidin-4-yl)-2-(pyridin-3-ylmethoxy) benzonitrile]: 5 to 50 nM and less than 10 nM.
The corresponding values for `N#Cc1cc(-c2ccnc(Nc3ccc(N4CCOCC4)cc3)n2)ccc1OCC1CCCNC1` (centres unmarked) [Example 94] are 5 to 50 nM and 10 to 100 nM.
On to `CC(C)COc1ccc(-c2ccnc(Nc3cccc(CS(=O)(=O)NCCO)c3)n2)cc1C#N` [compound 534, 1-[3-({4-[3-Cyano-4-(2-methylpropoxy)phenyl]pyrimidin-2-yl}amino)phenyl]-N-(2-hydroxyethyl) methanesulfonamide], for which the IC50 was 0.8 nM in test [1] (Table 3, read-out: IKKε IC50); less than 5 nM in test [1] (setting [3]); 0.4 nM in test [2] (Table 3, read-out: TBK1 IC50); less than 10 nM in test [2] (setting [4]).
Regarding `COc1ccc(-c2ccnc(Nc3ccc(S(=O)(=O)NCCCO)c(OC)c3)n2)cc1C#N` [compound 303, 4-{[4-(3-Cyano-4-methoxyphenyl)pyrimidin-2-yl]amino}-N-(3-hydroxypropyl)-2-methoxybenzene-sulfonamide], the IC50 in test [1] (setting [3]) was in the range of 5 to 50 nM; in test [2] (setting [4]), 10 to 100 nM.
For `COc1cc(C#N)cc(-c2ccnc(Nc3cccc(NC(C)=O)c3)n2)c1` [Example 214, N-(3-{[4-(3-Cyano-5-methoxyphenyl)pyrimidin-2-yl]amino}phenyl) acetamide], the IC50 in test [1] (setting [3]) was 5 to 50 nM; in test [2] (setting [4]) it was 10 to 100 nM.
Turning to `COC1CN(Cc2ccc(Nc3nccc(-c4ccc(NC(=O)C5CC5)c(C#N)c4)n3)cc2)C1` [compound 634, N-{2-Cyano-4-[2-({4-[(3-methoxyazetidin-1-yl)methyl]phenyl}amino)pyrimidin-4-yl]phenyl} cyclopropane-carboxamide], the IC50 in test [1] (setting [3]) was in the range of 5 to 50 nM; in test [2] (setting [4]), 10 to 100 nM.
The matching figures for `CC(C)COc1ccc(-c2ccnc(Nc3ccc(CS(=O)(=O)NCCO)cc3)n2)cc1C#N` [compound 645, 1-[4-({4-[3-Cyano-4-(2-methylpropoxy)phenyl]pyrimidin-2-yl}amino)phenyl]-N-(2-hydroxyethyl) methanesulfonamide]: less than 5 nM and less than 10 nM.
As for `C[C@H](O)C(=O)N1CCC(Oc2ccc(-c3ccnc(Nc4ccc(CN5CCOCC5)cc4)n3)cc2C#N)CC1` [compound 509, 2-({1-[(2S)-2-hydroxypropanoyl]piperidin-4-yl}oxy)-5-(2-{[4-(morpholin-4-ylmethyl)phenyl]amino}pyrimidin-4-yl)benzonitrile], the IC50 was 5 to 50 nM in test [1] (setting [3]) and less than 10 nM in test [2] (setting [4]).
Take `N#Cc1cc(-c2ccnc(Nc3ccc(N4CCOCC4)cc3)n2)ccc1OC1CCCCC1` [Example 165, 2-(Cyclohexyloxy)-5-(2-{[4-(morpholin-4-yl)phenyl]amino}pyrimidin-4-yl)benzonitrile]: the IC50 in test [1] (setting [3]) is less than 5 nM; in test [2] (setting [4]), less than 10 nM.
As to `CN(C)C(=O)CCNc1ccc(Nc2nccc(-c3ccc(OC4CCOCC4)c(C#N)c3)n2)cc1` [Example 209, N~3~-[4-({4-[3-cyano-4-(tetrahydro-2H-pyran-4-yloxy)phenyl]pyrimidin-2-yl}amino)phenyl]-N,N-dimethyl-beta-alaninamide], the IC50 in test [1] (setting [3]) was 5 to 50 nM; in test [2] (setting [4]), less than 10 nM.
The corresponding values for `CN(C)c1ccc(Nc2nccc(-c3cccc(C#N)c3)n2)cc1` [Example 286, 3-(2-{[4-(Dimethylamino)phenyl]amino}pyrimidin-4-yl)benzonitrile] are 50 to 500 nM and 100 to 500 nM.
Regarding `N#Cc1cc(-c2ccnc(Nc3ccc(N4CCOCC4)cc3)n2)ccc1OCCNC=O` [Example 230, N-{2-[2-cyano-4-(2-{[4-(morpholin-4-yl)phenyl]amino}pyrimidin-4-yl)phenoxy]ethyl} formamide], the IC50 was 5 to 50 nM in test [1] (setting [3]) and less than 10 nM in test [2] (setting [4]).
For the molecule `COc1cc(NC(=O)N[C@H]2CC[C@H](O)CC2)cc(Nc2nccc(-c3ccc(OC)c(C#N)c3)n2)c1` [Example 280, 1-(3-{[4-(3-Cyano-4-methoxyphenyl)pyrimidin-2-yl]amino}-5-methoxyphenyl)-3-(trans-4-hydroxycyclohexyl) urea], the values for the IC50 in test [1] (setting [3]) and in test [2] (setting [4]) were 5 to 50 nM and 10 to 100 nM, respectively.
Consider `Cc1ccc(-c2ccnc(Nc3ccc(N4CCOCC4)cc3)n2)cc1C#N` [Example 269, 2-Methyl-5-(2-{[4-(morpholin-4-yl)phenyl]amino}pyrimidin-4-yl)benzonitrile], for which the IC50 in test [1] (setting [3]) is 5 to 50 nM; in test [2] (setting [4]), less than 10 nM.
The corresponding values for `CS(=O)(=O)N1CCC(Oc2ccc(-c3ccnc(Nc4ccc(N5CCOCC5)cc4)n3)cc2C#N)C1` (centres unmarked) [Example 257, 2-{[1-(methylsulfonyl)pyrreolidin-3-yl]oxy}-5-(2-{[4-(morpholin-4-yl)phenyl]amino}pyrimidin-4-yl)benzonitrile] are 5 to 50 nM and 10 to 100 nM.
The corresponding values for `CC(C)(C)Oc1ccc(-c2ccnc(Nc3ccc(N4CCOCC4)cc3)n2)cc1C#N` [Example 164, 2-tert-Butyoxy-5-(2-{[4-(morpholin-4-yl)phenyl]amino}pyrimidin-4-yl)benzonitrile] are less than 5 nM and less than 10 nM.
The matching figures for `CS(=O)(=O)N1CCC(Nc2ccc(Nc3nccc(-c4ccc(OC5CCOCC5)c(C#N)c4)n3)cc2)CC1` [Example 171, 5-{2-[(4-{[1-(methylsulfonyl)piperidin-4-yl]amino}phenyl)amino]pyrimidin-4-yl}-2-(tetrahydro-2H-pyran-4-yloxy)benzonitrile]: less than 5 nM and less than 10 nM.
Consider `N#Cc1cccc(-c2ccnc(Nc3ccc(Cl)cc3)n2)c1` [compound 340, 3-{2-[(4-Chlorophenyl)amino]pyrimidin-4-yl}benzonitrile], for which, in test [2] (setting [4]), the IC50 fell in the range of 100 to 500 nM.
As for `N#Cc1cccc(-c2ccnc(Nc3ccc(OCCN4CCOCC4)cc3)n2)c1` [Example 283, 3-[2-({4-[2-(Morpholin-4-yl)ethoxy]phenyl}amino)pyrimidin-4-yl]benzonitrile], in test [2] (setting [4]), the IC50 is 10 to 100 nM.
On the same count and under the same terms, to `COc1cc(Nc2nccc(-c3ccc(OC4CCN(C(=O)OC(C)(C)C)CC4)c(C#N)c3)n2)ccc1N1CCOCC1` [Example 263, tert-butyl 4-[2-cyano-4-(2-{[3-methoxy-4-(morpholin-4-yl)phenyl]amino}pyrimidin-4-yl)phenoxy]piperidine-1-carboxylate] belongs 100 to 500 nM.
